Measured values published in ChEMBL document CHEMBL1641488, “Computational approach to the identification of novel Aurora-A inhibitors” (Bioorg Med Chem, 2011).

Assays:
DU-145 [1] = assay: Cytotoxicity against human DU145 cells at 10 uM after 4 hrs by MTT assay; format: functional; details: DU-145, 4 h
HT-29 [2] = assay: Cytotoxicity against human HT-29 cells after 4 hrs by MTT assay; format: functional; details: HT-29, 4 h
HT-29 [3] = assay: Cytotoxicity against human HT-29 cells at 10 uM after 4 hrs by MTT assay; format: functional; details: HT-29, 4 h
Aurora kinase A = target: T1, Aurora kinase A (Homo sapiens, UniProt O14965); assay: Inhibition of human recombinant His-tagged Aurora A kinase expressed in insect cells
T1 sequence (O14965 whole entry): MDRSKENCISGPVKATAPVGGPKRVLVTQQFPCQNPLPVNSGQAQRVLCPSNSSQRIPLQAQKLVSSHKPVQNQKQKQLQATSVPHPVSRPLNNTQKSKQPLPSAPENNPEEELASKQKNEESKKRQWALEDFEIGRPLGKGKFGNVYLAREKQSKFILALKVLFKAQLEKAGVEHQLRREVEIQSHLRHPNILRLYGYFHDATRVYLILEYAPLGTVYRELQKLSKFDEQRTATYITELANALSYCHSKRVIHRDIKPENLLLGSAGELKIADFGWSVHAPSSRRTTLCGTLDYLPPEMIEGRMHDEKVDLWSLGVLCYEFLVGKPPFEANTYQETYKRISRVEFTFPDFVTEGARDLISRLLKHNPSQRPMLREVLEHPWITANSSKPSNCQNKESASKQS

DU-145 [4] = assay: Cytotoxicity against human DU145 cells after 4 hrs by MTT assay; format: functional; details: DU-145, 4 h

Row | IC50 (Aurora kinase A; read-out: IC50) | IC50 (Aurora kinase A) | Compound | inhibition at 10 µM (DU-145 [1]) | GI50 (HT-29 [2]) | inhibition at 10 µM (HT-29 [3]) | GI50 (DU-145 [4])
1 | 98.7 µM | – | CCOc1ccc(NC(=O)Cn2c(Nc3ccc(OCC)cc3)nc3c2c(=O)[nH]c(=O)n3C)cc1 | 57% | 7.91 µM | 62% | > 100 µM
2 | 0.06 µM | – | Cc1ccc(-c2nnc(Nc3ccc(Oc4ncccc4-c4c[nH]nc4N)cc3)c3ccccc23)cc1 | – | – | – | –
3 | > 100 µM | – | COc1ccc(-c2cc(C(=O)Nc3ccc(C)cc3C)c3c(-c4ccccc4)[nH]nc3n2)cc1OC | 92% | 1.65 µM | 91% | 2.06 µM
4 | 16.7 µM | – | CCOc1ccc2nc(Nc3nc(O)c4ccccc4n3)nc(C)c2c1 | 80% | 29.1 µM | 89% | 36.9 µM
5 | > 100 µM | – | COc1ccc2sc(SCC(=O)Nc3ncc(Br)s3)nc2c1 | 49% | 2.04 µM | 89% | 17 µM
6 | – | Not Active | CCOc1ccc(NC(=S)N(CCN(CC)CC)Cc2cc3cc4c(cc3[nH]c2=O)OCCO4)cc1 [ASN03776845] | 49% | 6.33 µM | 78% | 14.1 µM
7 | – | Not Active | Cc1ccc(Nc2cc(Nc3ccc(NS(=O)(=O)c4ccccc4F)cc3)nc(C)n2)cc1 | 38% | 5.12 µM | 83% | 23.4 µM
8 | – | Not Active | COc1ccc(N(CC(=O)Nc2cc(Cl)ccc2C)S(=O)(=O)c2c(C)n[nH]c2C)cc1 | 74% | 3.98 µM | 87% | 5.98 µM
9 | 86.2 µM | – | COc1ccc2cc(C(=O)C3CCC(C(C)C(=O)NCCC4=CCCCC4)CC3)[nH]c2c1 (stereo unspecified) | 49% | 9.36 µM | 68% | 15.9 µM
10 | 11.9 µM | – | Cc1ccc(NC(=O)C(Cc2ccc(O)cc2)NC(=O)c2ccccc2N)cc1 (stereo unspecified) | 87% | 9.48 µM | 54% | 3.93 µM
11 | – | Not Active | CCOc1ccc2cc(CNc3cc(OC)cc(OC)c3)c(=O)[nH]c2c1 [ASN07410292] | 80% | 3.64 µM | 88% | 5.81 µM
12 | – | Not Active | CCOc1ccc2nc(NC3=NC(=O)CC(c4ccc(OC)cc4)N3)nc(C)c2c1 (stereo unspecified) | 84% | 7.08 µM | 85% | 4.26 µM
13 | 5.09 µM | – | COc1ccc(C(=O)Nc2ccccc2C(=O)NC(Cc2ccc(O)cc2)C(=O)Nc2ccc(C)cc2C)cc1 (stereo unspecified) | 90% | 5.23 µM | 73% | 2.73 µM
14 | – | Not Active | CCCOc1ccc(CNC(=O)c2[nH]c3cc(C)ccc3c2Sc2ccccc2)cc1 | 34% | 5.36 µM | 64% | 26 µM
15 | 18.4 µM | – | COc1ccc(OCC(O)Cn2c(N/N=C/c3ccccc3O)nc3c2c(=O)[nH]c(=O)n3C)cc1 (stereo unspecified) | 23% | 7.94 µM | 58% | 27.7 µM
16 | > 100 µM | – | CC(=O)Nc1cccc(NC(=O)C(=O)NCCc2sc(-c3ccc(Cl)cc3)nc2C)c1 | 32% | 16.5 µM | 54% | > 100 µM
